Experiment: Phase 1b study in previously untreated higher-risk MDS: dose administration, dose reductions and cycle delays in SE1 and SE2
Type: in vivo, human
Details: for # of reductions in Venetoclax duration: reductions due to hematologic toxicity
Experimental: Responses were evaluated using IWG 2006 criteria.
Subjects who initiate a cycle of treatment with neutropenia, absolute neutrophil count <1.5×10^9/L, or thrombocytopenia, platelets <75×10^9/L, may be especially sensitive to cytopenias due to abnormal hematopoiesis resulting from the underlying […]. […] However, subjects who initiate a cycle of treatment with absolute neutrophil count 1.5×10^9/L and platelets 75×10^9/L and have a previous response of complete remission, partial remission, or marrow complete remission may require dose reduction, if subsequent absolute neutrophil count nadir <0.500×10^9/L, or platelets nadir <50×10^9/L, if baseline was >100×10^9/L, or platelets <50% if baseline was ≤100×10^9/L.

Question: For CC1(C)CCC(CN2CCN(c3ccc(C(=O)NS(=O)(=O)c4ccc(NCC5CCOCC5)c([N+](=O)[O-])c4)c(Oc4cnc5[nH]ccc5c4)c3)CC2)=C(c2ccc(Cl)cc2)C1 [Venetoclax, 4-(4-{[2-(4-chlorophenyl)-4,4-dimethylcyclohex-1-en-1-yl]methyl}piperazin-1-yl)-N-({3nitro-4-[(tetrahydro-2H-pyran-4-ylmethyl)amino]phenyl}sulfonyl)-2-(1H-pyrrolo[2,3-b]pyridin5-yloxy)benzamide], which “Venetoclax dose delay by end of Cycle 2, Median # days” value (SE1, n = 22) is on record?
Answer: The value was 7.5 days.

Question: And the “Venetoclax dose delay by end of Cycle 3, Median # days” value (SE1, n = 22)?
Answer: Its value is 14 days.

Question: And the “Venetoclax dose delay by end of Cycle 4, Median # days” value (SE1, n = 22)?
Answer: Its value is 17 days.

Question: What about the “Venetoclax dose delay by end of Cycle 5, Median # days” value (SE1, n = 22) of the same molecule?
Answer: The value was 14 days.

Question: What about the “Venetoclax dose delay by end of Cycle 6, Median # days” value (SE1, n = 22) of the same molecule?
Answer: The value was 7 days.

Question: And the “# of reductions in Venetoclax duration” value (SE1, n = 22)?
Answer: Its value is 3 (14).

Question: What about the “Venetoclax dose delay by end of Cycle 2, Median # days” value (SE2, n = 21) of the same molecule?
Answer: Its value is 8 days.

Question: And the “Venetoclax dose delay by end of Cycle 3, Median # days” value (SE2, n = 21)?
Answer: The value was 8.5 days.

Question: What about the “Venetoclax dose delay by end of Cycle 4, Median # days” value (SE2, n = 21) of the same molecule?
Answer: The value was 9 days.

Question: What about the “Venetoclax dose delay by end of Cycle 5, Median # days” value (SE2, n = 21) of the same molecule?
Answer: The value was 14 days.

Question: What about the “Venetoclax dose delay by end of Cycle 6, Median # days” value (SE2, n = 21) of the same molecule?
Answer: Its value is 14 days.

Question: And the “# of reductions in Venetoclax duration” value (SE2, n = 21)?
Answer: The value was 0.
